According to paper PMC10002375, “Synthesis of 3-(2-Alkylthio-4-chloro-5-methylbenzenesulfonyl)-2-(1-phenyl-3-arylprop-2-enylideneamino)guanidine Derivatives with Pro-Apoptotic Activity against Cancer Cells” (International Journal of Molecular Sciences, 2023):

Experiments:
[1] = test system: MCF-7 (breast cancer); assay: MTT cell viability assay, MCF-7; type: cell-based, human; conditions: for IC50: MTT, 72 h; for Selectivity Index MCF-7/HaCaT: MCF-7 versus HaCaT, from IC50 values
Excerpt: (§1) The cytotoxic activity of the compounds 8–33 has been evaluated in MTT assays against three human cancer cell lines MCF-7 (breast cancer), HeLa (cervical cancer), and HCT-116 (colon cancer) and it was expressed as IC50 values in μM (Table 1).
(§2) All chemicals, if not stated otherwise, were obtained from Sigma-Aldrich (St. Louis, MO, USA). The MCF-7 cell line was purchased from Cell Lines Services (Eppelheim, Germany), the HeLa and HCT-116 cell lines were obtained from the Department of Microbiology, Tumor and Cell Biology, Karolinska Institute (Stockholm, Sweden). Cells were cultured in Dulbecco’s modified Eagle’s medium (DMEM) supplemented with 10% fetal bovine serum, 2 mM glutamine, 100 units/mL penicillin, and 100 μg/mL streptomycin. Cultures were maintained in a humidified atmosphere with 5% CO2 at 37 °C in an incubator (HeraCell, Heraeus, Langenselbold, Germany).
(§3) Cell viability was determined using the MTT (3-(4,5-dimethylthiazol-2-yl)-2,5-diphenyl-tetrazoliumbromide) assay. Stock solutions of the studied compounds were prepared in 100% DMSO. […] Cells were seeded in 96-well plates at a density of 5 × 10^3 cells/well and treated for 72 h with the examined compounds in the concentration range 1–100 μM (1, 10, 25, 50, and 100 μM). Following treatment, MTT (0.5 mg/mL) was added to the medium and cells were further incubated for 2 h at 37 °C. Cells were lysed with DMSO and the absorbance of the formazan solution was measured at 550 nm with a plate reader (1420 multilabel counter, Victor, Jügesheim, Germany). […] The experiment was performed in triplicate. Values are expressed as the mean ± SD of at least three independent experiments.

[2] = test system: HCT-116 (colon cancer); assay: MTT cell viability assay, HCT-116; type: cell-based, human; conditions: for IC50: Homo sapiens, HCT-116, MTT, 72 h; for Selectivity Index HCT-116/HaCaT: HCT-116 versus HaCaT, from IC50 values
Method: as §2, §3

[3] = test system: HeLa (cervical cancer); assay: MTT cell viability assay, HeLa; type: cell-based, human; conditions: for IC50: Homo sapiens, HeLa, MTT, 72 h; for Selectivity Index HeLa/HaCaT: HeLa versus HaCaT, from IC50 values
Method: as §2, §3

[4] = test system: HaCaT cells; assay: MTT assay with non-cancerous HaCaT cell line; type: cell-based; conditions: 72 h
Method: The important feature of new cytotoxic agents is their selective activity against cancer cells with a weak impact on the physiology of healthy cells. Determination of the selectivity of compounds 14–19 and 24–29 was done by MTT assay with the non-cancerous HaCaT cell line (Table 2). […] A similar effect was observed also for compound 26. […] Due to the excellent selectivity of compound 30 towards HCT-116 cells and at the same time high cytotoxicity towards this cell line (IC50 = 8 μM); derivative 30 may be a good hit compound for the search for chemotherapeutic agents for the treatment of colon cancer.
as §3

[5] = test system: MCF-7, HeLa and HCT-116 cells; assay: MTT assay, mean over three tested cancer cell lines; type: cell-based, human
Method: as §1
Although the highest activity of the compounds with hydroxyl groups as the R^2 residue was against colon cancer cells, the inhibition of the growth of breast cancer cells was also remarkable.
as §3

Compound	IC50 ([1]; Homo sapiens, MCF7) [µM]	IC50 [2] [µM]	IC50 [3] [µM]	Selectivity Index MCF-7/HaCaT [1]	Selectivity Index HeLa/HaCaT [3]	Selectivity Index HCT-116/HaCaT [2]	IC50 ([4]; Homo sapiens, HaCaT) [µM]	melting point [°C]	selectivity ratio, mean IC50 against cancer cells versus IC50 for HaCaT ([5]; HaCaT versus mean of three cancer cell lines)	IC50 ([5]; Homo sapiens, mean of MCF-7, HeLa, HCT-116, MTT, 72 h, read-out: mean IC50 against three tested cell lines) [µM]	IC50 [1] [µM]	IC50 [4] [µM]
COc1ccc(C=CC(=NN=C(N)NS(=O)(=O)c2cc(C)c(Cl)cc2SCc2ccccc2)c2ccccc2)cc1 [Compound 11]	330 ± 17	300 ± 21										
Cc1cc(S(=O)(=O)NC(N)=NN=C(C=Cc2ccc([N+](=O)[O-])cc2)c2ccccc2)c(SCc2ccccc2)cc1Cl [Compound 13]	370 ± 20	320 ± 10	340 ± 31									
Cc1cc(S(=O)(=O)NC(N)=NN=C(C=Cc2ccccc2O)c2ccccc2)c(SCc2ccc(Cl)cc2)cc1Cl [Compound 29]	19 ± 1	18 ± 0.4	41 ± 2	2.4	ns	2.5	45 ± 3					
Cc1cc(S(=O)(=O)NC(N)=NN=C(C=Cc2ccc(O)cc2)c2ccccc2)c(SCc2ccccc2Cl)cc1Cl [Compound 25]	19 ± 1	15 ± 0.6	18 ± 0.5	2.2	2.3	2.7	41 ± 2					
Cc1cc(S(=O)(=O)NC(N)=NN=C(C=Cc2ccc(O)cc2)c2ccccc2)c(SCc2cccc(Cl)c2)cc1Cl [Compound 27]	16 ± 1	12 ± 0.1	20 ± 0.5	2.3	1.8	3.1	37 ± 2					
Cc1cccc(CSc2cc(Cl)c(C)cc2S(=O)(=O)NC(N)=NN=C(C=Cc2ccc(O)cc2)c2ccccc2)c1 [Compound 17]	17 ± 1	12 ± 0.6	21 ± 1	2.1	1.7	2.9	35 ± 2					
Cc1cc(S(=O)(=O)NC(N)=NN=C(C=Cc2ccc([N+](=O)[O-])cc2)c2ccccc2)c(SCc2ccc(Cl)cc2)cc1Cl [Compound 33]	220 ± 12	450 ± 27	110 ± 3									
Cc1cc(S(=O)(=O)NC(N)=NN=C(C=Cc2ccccc2O)c2ccccc2)c(SCc2ccccc2C)cc1Cl [Compound 14]	13 ± 0.6	9 ± 0.1	18 ± 1	2.4	1.7	3.4	31 ± 2					
Cc1cc(S(=O)(=O)NC(N)=NN=C(C=Cc2ccccc2O)c2ccccc2)c(SCc2ccccc2)cc1Cl [Compound 9]	18 ± 1	11 ± 0.5	17 ± 1	1.9	2.1	3.2	35 ± 1					
Cc1cc(S(=O)(=O)NC(N)=NN=C(C=Cc2ccccc2)c2ccccc2)c(SCc2ccc(Cl)cc2)cc1Cl [Compound 28]	230 ± 12	220 ± 11	20 ± 1				99 ± 3					
Cc1cccc(CSc2cc(Cl)c(C)cc2S(=O)(=O)NC(N)=NN=C(C=Cc2ccccc2O)c2ccccc2)c1 [Compound 16]	20 ± 0.5	17 ± 0.1	36 ± 2	2.0	ns	2.4	41 ± 2					
Cc1cc(S(=O)(=O)NC(N)=NN=C(C=Cc2ccc(Cl)cc2)c2ccccc2)c(SCc2ccccc2)cc1Cl [Compound 12]	210 ± 13	113 ± 6	190 ± 10									
Cc1ccc(CSc2cc(Cl)c(C)cc2S(=O)(=O)NC(N)=NN=C(C=Cc2ccccc2O)c2ccccc2)cc1 [Compound 19]	14 ± 1	11 ± 0.2	23 ± 1	1.9	1.6	3.3	36 ± 2	120 to 125				
Cc1ccc(CSc2cc(Cl)c(C)cc2S(=O)(=O)NC(N)=NN=C(C=Cc2ccc(O)cc2)c2ccccc2)cc1 [Compound 20, 3-{4-Chloro-2-[(4-methylphenyl)methylthio]-5-methylbenzenesulfonyl}-2-[3-(4-hydroxyphenyl)-1-phenylprop-2-enylideneamino]guanidine]	15 ± 1	8.5 ± 0.2	15 ± 1	2.1	2.1	3.6	31 ± 1		2.42	12.8		
N.N.[Cl][Pt][Cl] [Cisplatin, reference compound]											3 ± 0.1	7.7 ± 0.2
Cc1cc(S(=O)(=O)NC(N)=NN=C(C=Cc2ccc(O)cc2)c2ccccc2)c(SCc2ccc(Cl)cc2)cc1Cl [Compound 30, 3-{4-chloro-2-[(4-chlorophenyl)methylthio]-5-methylbenzenesulfonyl}-2-[3-(4-hydroxyphenyl)-1-phenylprop-2-enylideneamino]guanidine]	18 ± 1	8 ± 0.2	37 ± 1	4.7	2.3	10.6	85 ± 2					
Cc1ccc(CSc2cc(Cl)c(C)cc2S(=O)(=O)NC(N)=NN=C(C=Cc2ccc([N+](=O)[O-])cc2)c2ccccc2)cc1 [Compound 23]	280 ± 17		170 ± 10									
Cc1ccc(CSc2cc(Cl)c(C)cc2S(=O)(=O)NC(=N)N/N=C(/C=C/c2ccccc2)c2ccccc2)cc1 [Compound 18]	260 ± 15	160 ± 5	200 ± 10									
Cc1cc(S(=O)(=O)NC(N)=NN=C(C=Cc2ccccc2O)c2ccccc2)c(SCc2cccc(Cl)c2)cc1Cl [Compound 26]	13 ± 0.6	10 ± 0.4	19 ± 0.5	2.9	2.0	3.8	38 ± 2					
Cc1cc(S(=O)(=O)NC(N)=NN=C(C=Cc2ccccc2)c2ccccc2)c(SCc2ccccc2)cc1Cl [Compound 8]	130 ± 8	167 ± 7	120 ± 8									
Cc1cc(S(=O)(=O)NC(N)=NN=C(C=Cc2ccc(O)cc2)c2ccccc2)c(SCc2ccccc2C)cc1Cl [Compound 15]	13 ± 0.4	10 ± 0.6	18 ± 0.5	2.5	1.8	3.3	33 ± 2	220 to 225				
COc1ccc(C=CC(=NN=C(N)NS(=O)(=O)c2cc(C)c(Cl)cc2SCc2ccc(C)cc2)c2ccccc2)cc1 [Compound 21]	150 ± 10	235 ± 5	250 ± 12									
Cc1ccc(CSc2cc(Cl)c(C)cc2S(=O)(=O)NC(N)=NN=C(C=Cc2ccc(Cl)cc2)c2ccccc2)cc1 [Compound 22]	193 ± 10	183 ± 13	705 ± 35					172 to 177				
Cc1cc(S(=O)(=O)NC(N)=NN=C(C=Cc2ccc(O)cc2)c2ccccc2)c(SCc2ccccc2)cc1Cl [Compound 10]	15 ± 1	9 ± 0.1	15 ± 1	2.1	2.1	3.4	31 ± 1					
